Assay results taken from paper PMC4564450, “Oral and inhaled p38 MAPK inhibitors: effects on inhaled LPS challenge in healthy subjects” (European Journal of Clinical Pharmacology, 2015).

Legend:
[1] = system: phospho-p38 expression in sputum macrophages; assay: Immunocytochemistry of sputum macrophages: phospho-p38; assay type: in vivo, human; conditions: study 2
Experimental: (§1) Frozen cytospins created from sputum cells were analysed for phosphorylated-Heat Shock Protein 27 (phospho-HSP27) and phospho-p38 expression in sputum macrophages. The methods are fully described in the online supplement. Phospho-p38 and phospho-HSP27 immunoreactivity is presented as percentage of the macrophage population. All analyses were carried out by blinded observers.
Frozen cytospins created from sputum cells were thawed and the cells were fixed in 4% paraformaldehyde in PBS for 10 minutes at room temperature, followed by blocking in normal serum. Cytospins were then incubated with the following primary antibodies overnight at 4 °C; anti-human phosphorylated-p38 (phospho-p38) MAPK (Thr180/Tyr182) antibody (Cat No. 9211S, New England Biolabs, Herts, UK) or phosphorylated-Heat Shock Protein 27 (phospho-HSP27 [Cat No. S82, New England Biolabs]) diluted 1:50 in 1.5% normal serum with 0.5% Triton X-100 (Sigma-Aldrich). Endogenous peroxidase was quenched by incubating cytospins in 3% H2O2 in methanol (0.3% for phospho-p38). Phospho-p38 and phospho-HSP27 were detected using biotinylated goat anti-rabbit IgG secondary antibody (Vector Labs, Peterborough, UK) in conjunction with an avidin–biotin peroxidase complex (Vector Labs) and 3,3’-diaminobenzidine (DAB) substrate. Cell nuclei were counterstained with Gill’s haematoxylin (Sigma-Aldrich). Omission of primary antibody in staining protocol was used as a negative control.
(§2) Digital micrographs were obtained through the use of a Nikon Eclipse 80i microscope (Nikon UK Ltd, Surrey, UK) equipped with a QImaging digital camera (Media cybernetics, Marlow, UK) and ImageProPlus 5.1 software (Media Cybernetics). Sputum macrophages (determined by morphology) were analysed for phospho-p38 and phospho-HSP27 expression following single label immunohistochemistry utilising the ImagePro Plus image analysis software; at least 200 macrophages per cytospin were counted. Phospho-p38 and phospho-HSP27 immunoreactivity was presented as percentage of the macrophage population. All analysis was carried out by blinded observers.

[2] = healthy subjects; ref previous phase 1 studies (unpublished); cited from earlier work
[3] = system: phospho-HSP27 expression in sputum macrophages; assay: Immunocytochemistry of sputum macrophages: phospho-HSP27; assay type: in vivo, human; conditions: study 2; PH-797804 30 mg oral or PF-03715455 20 mg inhaled; Post-LPS
Experimental: as §1
Frozen cytospins created from sputum cells were thawed and the cells were fixed in 4% paraformaldehyde in PBS for 10 minutes at room temperature, followed by blocking in normal serum. […] Phospho-p38 and phospho-HSP27 were detected using biotinylated goat anti-rabbit IgG secondary antibody (Vector Labs, Peterborough, UK) in conjunction with an avidin–biotin peroxidase complex (Vector Labs) and 3,3’-diaminobenzidine (DAB) substrate. […]
as §2, with “Phospho-p38 and phospho-HSP27 immunoreactivity was presented as percentage of the macrophage population. All analysis was carried out by blinded observers.” left out

[4] = Plasma pharmacokinetics (sparse sampling); assay type: in vivo, human; conditions: study 2, PF-03715455 20 mg inhaled
[5] = system: IL-6, MPO, MCP-1 and MIP-1β in sputum supernatant; assay: Inhaled LPS challenge: sputum supernatant protein biomarkers; assay type: in vivo, human; conditions: study 2, PH-797804 30 mg oral or PF-03715455 20 mg inhaled
Experimental: A baseline sputum sample was obtained within 14 days of the first study period when subjects were administered a single dose of randomised treatment. […] Induced sputum was obtained 6 h later to coincide with the maximal inflammatory response caused by inhaled LPS. A washout period of at least 21 days followed, with subjects returning after 14 days of the washout period for induced sputum sampling; this was performed to ensure that the total cell count, total neutrophil count and total macrophage count were within the range of −80 to +100 % of the screening values. […] If these criteria were not met, then up to two repeat visits to obtain sputum were allowed, with at least 4 days between sputum inductions. The next randomised treatment day was scheduled at least 4 days after sputum induction and was identical to the first treatment day.
Sputum was induced using normal saline after inhalation of salbutamol, and processing was performed using dithiothreitol (DTT) as previously described [20]. The supernatants were stored at −80 °C for later analysis, while cells were used to produce cytoslides (Cytospin 4, Shandon, Runcorn, UK) for differential cell counting and immunocytochemistry. Cytoslides for differential cell count were fixed in methanol (Sigma) and then stained with Rapi-Diff® (GCC Diagnostics, Sandyhurst, UK) or Wright-modified Giemsa (Accustatin WG-18, Sigma-Aldrich); a minimum of 400 non-squamous cells were counted and differential cell counts obtained as percentage of total non-squamous cells. Cell viability was analysed by trypan blue exclusion. Cytoslides with % squamous cell counts <20 % were deemed to be of acceptable quality for differential cell counting. Unfixed cytoslides were wrapped in aluminium foil and stored frozen at −80 °C for immunocytochemistry.
In studies 1 and 2, sputum supernatants were analysed for interleukin 6 (IL-6), myeloperoxidase (MPO), monocyte chemotactic protein-1 (MCP-1) and macrophage inflammatory protein-1β (MIP-1 β), using electrochemiluminescent immunoassays (ECLIA) or enzyme-linked immunosorbent assays (ELISA); the manufacturers are listed in the online supplement. In study 3, sputum supernatants were analysed for IL-6, MCP-1 and MIP-1β by the same method.

[6] = system: sputum neutrophils and macrophages after inhaled LPS; assay: Inhaled LPS challenge in healthy subjects: induced sputum cell counts; assay type: in vivo, human; conditions: for Macrophage Differential in sputum, difference between the active treatment mean and the placebo mean: footnote: difference, not ratio
Experimental: Three randomised, double-blind, placebo-controlled crossover studies were performed; the effects of a single dose of active treatment was investigated in all three studies. […] Studies 2 and 3 were conducted at two UK centres: Quintiles Drug Research Unit, London, and Medicines Evaluation Unit, Manchester. […] The studies were performed during the following time periods: study 1, Sep 2006–Mar 2008; study 2, Jan 2011–Dec 2011; and study 3, Jul 2011–Jan 2012. The design of all three studies was similar. A baseline sputum sample was obtained within 14 days of the first study period when subjects were administered a single dose of randomised treatment. […] Induced sputum was obtained 6 h later to coincide with the maximal inflammatory response caused by inhaled LPS. […] This criterion was used to ensure that sputum cell counts after LPS challenge had returned to close to the original baseline values; this was done to reduce data variability between treatment periods. […] For each challenge, a 1-mg vial of lyophilised LPS (Escherichia coli serotype O26:B6, ref. L-2654, Sigma-Aldrich, Dorset, UK) was diluted with 4 mL of 0.9 % w/v sodium chloride. The reconstitution produced a 0.25 mg/mL solution, of which 2 mL was placed into the pre-calibrated dosimeter pot and administered via five inhalations from a breath-activated dosimeter (Mefar dosimeter MB3, Brescia, Italy). Each inhalation was performed over 3 s with a 6-s breath hold. […] Sputum was induced using normal saline after inhalation of salbutamol, and processing was performed using dithiothreitol (DTT) as previously described. The supernatants were stored at −80 °C for later analysis, while cells were used to produce cytoslides (Cytospin 4, Shandon, Runcorn, UK) for differential cell counting and immunocytochemistry. […] Cell viability was analysed by trypan blue exclusion. Cytoslides with % squamous cell counts <20 % were deemed to be of acceptable quality for differential cell counting. Unfixed cytoslides were wrapped in aluminium foil and stored frozen at −80 °C for immunocytochemistry. Sputum neutrophil percentage was the primary endpoint for all three studies. The neutrophil percentage was modelled using a mixed effects analysis of covariance (ANCOVA) model appropriate for a two-period, two-treatment or three-period, three-treatment crossover design. The fixed effects in the model were treatment and period. Subjects were modelled as a random effect. Additionally, the period-specific baseline was modelled as a covariate. This model was used for all sputum inflammatory markers, including the immunohistocytochemistry, where cell counts were log transformed before analyzing the data and percent differentials were not transformed. […] Ninety percent confidence intervals of the difference (non-transformed data) or the ratio (log-transformed data) were constructed based on the ANCOVA model.

[7] = Safety: treatment emergent adverse events; assay type: in vivo, human
Experimental: Safety was assessed in these studies by physical examinations, haematology and biochemistry measurements, ECG analysis and reporting of any adverse events.
Summary of Number ofSubjects Experiencing Treatment EmergentAdverse Events by MedDRA System Organ Class

[8] = study 2, PH-797804 30 mg oral or PF-03715455 20 mg inhaled, post LPS, ANCOVA model mean
[9] = study 2, post LPS, listed as PF-03715445
[10] = study 2, PF-03715455 20mg (n=27), PH-797804 30mg (n=23)

- Plasma concentration ([4]; 1.5 h post dose): 472.6 (116.4) pg/mL
- Plasma concentration ([4]; 6.5 h post dose): 110.6 (29.7) pg/mL
SMILES: CC(C)(C)c1cc(NC(=O)NCc2ccccc2Sc2ccc3nnc(-c4ccccc4SCCO)n3c2)n(-c2ccc(O)c(Cl)c2)n1 [PF-03715455]
- attenuation of the baseline measurements (macrophages expressing phospho-P38 and phospho-HSP27) ([1]; PF-03715455 20 mg inhaled): 45–50%
- mean percentage of macrophages expressing phospho-p38 ([1]; PH-797804 30 mg oral or PF-03715455 20 mg inhaled, Post-LPS): 25.03%
- time of maximum systemic concentration (tmax) [2]: ~30 min
- mean percentage of macrophages expressing phospho-HSP27 [3]: 26.89%
- sputum supernatant IL-6, MPO, MCP-1 and MIP-1β levels compared to placebo [5]: no effects
- Sputum IL-6, mean ([5]; post LPS): 91.67 pg/mL
- Sputum MCP-1, mean ([5]; post LPS): 115.38 pg/mL
- Sputum MIP-1β, mean ([5]; post LPS): 396.35 pg/mL
- Sputum MPO, mean ([5]; post LPS): 937.04 ng/mL
- attenuation of the modelled LPS response (sputum neutrophil percentage) ([6]; PH-797804: studies 1 and 2, PF-03715455: study 2): approximately 25%
- reduction in mean sputum neutrophil percentage post-LPS compared to placebo ([6]; study 2, PH-797804 30 mg oral (p = 0.0001) or PF-03715455 20 mg inhaled (p = 0.031), single dose): 8.0%
- Mean (SD) sputum neutrophil percentage ([6]; study 2, PH-797804 30 mg oral or PF-03715455 20 mg inhaled, single dose, 6 h post-LPS): 66.4 (14.0) %
- Macrophage Differential in sputum [6, 8]: 30.78%
- Total Cell Count in sputum [6, 8]: 3.83e+06 g⁻¹
- Total Macrophage Count in sputum [6, 8]: 1.09e+06 g⁻¹
- Total Neutrophil Count in sputum [6, 8]: 2.43e+06 g⁻¹
- Total Cell Count in sputum, Ratio of Means active/placebo ([6]; study 2, post LPS): 1.02
- Total Macrophage Count in sputum, Ratio of Means active/placebo ([6]; study 2, post LPS): 1.62
- Total Neutrophil Count in sputum, Ratio of Means active/placebo ([6]; study 2, post LPS): no effects
- Macrophage Differential in sputum, difference between the active treatment mean and the placebo mean ([6]; study 2, post LPS): significantly attenuated
- Macrophage Differential in sputum, difference between the active treatment mean and the placebo mean [6, 9]: 7.97%
- Total Neutrophil Count in sputum, Ratio of Means active/placebo [6, 9]: 0.85
- safety and tolerability ([7]; single doses, healthy subjects, studies 1 and 2): safe and generally well tolerated
- Number of subjects with treatment emergent AE: Eye Disorders [7, 10]: 0
- Number of subjects with treatment emergent AE: Gastrointestinal Disorders [7, 10]: 2
- Number of subjects with treatment emergent AE: General Disorders and Administration Site Conditions [7, 10]: 3
- Number of subjects with treatment emergent AE: Immune system disorders [7, 10]: 0
- Number of subjects with treatment emergent AE: Injury, Poisoning and Procedural Complications [7, 10]: 0
- Number of subjects with treatment emergent AE: Musculoskeletal and Connective tissue disorders [7, 10]: 0
- Number of subjects with treatment emergent AE: Nervous system disorders [7, 10]: 5
- Number of subjects with treatment emergent AE: Respiratory, thoracic and mediastinal disorders [7, 10]: 2
- Number of subjects with treatment emergent AE: Skin and subcutaneous tissue disorders [7, 10]: 1
- Number of subjects with treatment emergent AE: Vascular disorders [7, 10]: 1
- Number of subjects with treatment emergent AE: Psychiatric disorders ([7]; study 2, PF-03715455 20mg (n=27), PH-797804 30mg (n=23), hangover (PF-03715455), loss of libido and insomnia (PH-797804)): 1
- AE requiring withdrawal ([7]; study 2, one subject, 5 days after dosing, investigator did not consider it related): cellulitis
